# Reference: US20130096160A1, “ARYLTHIAZOLYL PIPERIDINES AND RELATED COMPOUNDS AS MODULATORS OF SURVIVAL MOTOR NEURON (SMN) PROTEIN PRODUCTION” (Secretary, Department of Health and Human Services, priority 2010, published 2013)
# Experiments:
# SMN2-luciferase reporter = SMN2-luciferase reporter qHTS assay; type: cell-based, human; design: key to Curve Class: A curve class of 1.1 is a full agonist/antagonist; a curve class of 4 indicates the compound is inactive; settings: for Curve Class: agonist/antagonist character of the concentration-response, lower values = more significant concentration-response; for Increased SMN2 activity: percent increase (or decrease) in SMN2 levels compared to control in which no test compound is added
# Procedure, shortened: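 SMN2 exon-7 splicing firefly-luciferase reporter cell line, ~2000 cells/well in phenol-red-free DMEM with 10% serum, allowed to adhere 10–12 h, then exposed to compounds for 2 days at 37 C, 5% CO2. Seven-point five-fold dilution series (e.g. 50 μM to 3.2 nM), OneGlo luminescence read, curves fitted to Hill equation.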
# human SMN protein = assay: Western blot of SMN protein in SMA patient fibroblasts (3813); type: cell-based; settings: 3813 fibroblasts, quantitative western blotting, FIG. 4; for SMN protein level versus dose (in words): different doses
# Experimental: Type I spinal muscular atrophy (SMA)-affected human primary fibroblasts (#GM03813) and carrier parents (#GM03814, parent and #GM03815, […]) are obtained live with low passage number from Coriell Cell Repositories. […] For detection of SMN protein in patient fibroblasts, 8,000 cells per cm^2 are plated 24 hours prior to drug addition. Fresh media and compound are added every 24 hours. After 72 hours, cells are harvested, washed with cold PBS, and lysed. Samples are subjected to polyacrylamide gel electrophoresis (PAGE). It is determined that 10 μg total protein per lane is within the linear range for immunoblot detection of SMN and alpha-tubulin. Western blots of the gel are probed for SMN with the 4B7 mouse monoclonal antibody (from the lab of Christian Lorson). A goat anti-mouse antibody (Santa Cruz Biotechnology/#sc-2005) conjugated to horseradish peroxidase (HRP) is used as the secondary antibody. Quantification of protein is performed by detecting chemiluminescence with a Fujifilm LAS-4000 Multifunctional Imaging System. […] We incubated a fibroblast cell line from a type I SMA patient (3813 cell line) with different doses of analogues and assessed the SMN protein level by quantitative western blotting (FIG. 4). We observed that analogue 8 m at concentration of 37 nanomolar increased the SMN protein level by 2-3 fold. […] This could be due with the intrinsic mechanism of action or to other causes, such us concentration dependent compound solubility.
# [1] = mouse, microsomes, 1 h, 1 μM, pH 7.4
# Experimental: The test agent is incubated at 1 μM in duplicate with mouse microsomes at 37° C. for 60 min. The reaction contains 0.3 mg/mL microsomal protein in 100 mM potassium phosphate, 2 mM NADPH, 3 mM MgCl2, pH 7.4. A control is run for each test agent omitting NADPH to detect NADPH-free degradation. At indicated times, an aliquot is removed from each experimental and control reaction and mixed with an equal volume of ice-cold Stop Solution (0.3% acetic acid in acetonitrile containing haloperidol, diclofenac, or other internal standard). Stopped reactions are incubated at least ten minutes at −20° C., and an additional volume of water is added.
# The samples are centrifuged to remove precipitated protein, and the supernatants are analyzed by LC/MS/MS, as described above, to quantitate the remaining parent. Data are reported as % remaining by dividing by the time zero concentration value.
# in vitro = in vitro ADME; settings: human, Caco-2
# Experimental: CaCo-2 cells grown in tissue culture flasks are trypsinized, suspended in medium, and the suspensions are applied to wells of a collagen-coated BioCoat Cell Environment in 24-well format (BD Biosciences) at 24,500 cells per well. The cells are allowed to grow and differentiate for three weeks, feeding at 2-day intervals.
# For Apical to Basolateral (A->B) permeability, the test agent is added at 50 μM to the apical (A) side and amount of permeation is determined on the basolateral (B) side; for Basolateral to Apical (B>A) permeability, the test agent is added at 50 μM to the B side and the amount of permeation is determine on the A side. The A-side buffer contains 100 μM Lucifer yellow dye, in Transport Buffer (1.98 g/L glucose in 10 mM HEPES, 1× Hank's Balanced Salt Solution) pH 6.5, and the B-side buffer is Transport Buffer, pH 7.4. CaCo-2 cells are incubated with these buffers for 2 h., and the receiver side buffer is removed for analysis by liquid chromatography-mass spectrometry (LC/MS/MS).
# Additionally, several control compounds are tested in the identical assay.
# To verify that CaCo-2 cell monolayers are properly formed, aliquots of the cell buffers are analyzed by fluorescence to determine the transport of the impermeable dye Lucifer Yellow.
# Data are expressed as permeability (Papp): […]
# where dQ/dt is the rate of permeation, C0 is the initial concentration of test agent, and A is the area of the monolayer.
# In bidirectional permeability studies, the asymmetry index (AI) or efflux ratio is also calculated:
# An AI>1 indicated a potential substrate for PGP or other active transporters.
# Samples are analyzed by LC/MS/MS using either an Agilent 6410 mass spectrometer coupled with an Agilent 1200 high performance liquid chromatography (HPLC) and a CTC PAL chilled autosampler, all controlled by MassHunter software (Agilent), or an ABI2000 mass spectrometer coupled with an Agilent 1100 HPLC and a CTC PAL chilled autosampler, all controlled by Analyst software (ABI). After separation on a C18 reverse phase HPLC column (Agilent, Waters, or equivalent) using an acetonitrile-water gradient system, peaks are analyzed by mass spectrometry (MS) using electrospray ionization (ESI) in multiple reaction monitoring (MRM) mode.
# The signal is optimized for each compound by ESI positive or negative ionization mode. A MS2 selected ion monitoring (SIM) scan is used to optimize the precursor ion and a product ion analysis is used to identify the best fragment for analysis and to optimize the collision energy.
# [2] = system: SMN positive foci or gems in the nucleus; assay: Gem count in human type I SMA fibroblasts; type: cell-based; settings: 3 days, FIG. 5; for number of gems versus dose (in words): 37 nM-3000 nM
# Description: Furthermore, the increase in SMN protein production led us to explore whether the arylpiperidine analogues had effect of on the overall number of SMN positive foci or gems in the nucleus. This would corroborate that the increased protein amounts represent indeed functional SMN protein. SMN protein is predominately a cytoplasmic protein in the nucleous SMN which localized to in distinct punctuate bodies often referred to as gems (gemini of coiled [Cajal] bodies). There is a direct correlation between the number of gems and total SMN protein production in the cell. Gem counts are commonly used as another metric to score the amount total SMN protein expressed on a cell-to-cell basis. […] Only 3.3% of nuclei have gems in fibroblast cells from SMA type I patients (cell line 3813), while 24.8% of nuclei have gems in fibroblast from a carrier parent (3814 cell line). We treated human type I SMA fibroblasts with increasing doses (37 nM 3000 nM) of arylpiperidine analogues 8a, 8m, and 9a for 3 days and the number of gems per 100 nuclei were examined (FIG. 5). Analogue 8m treatment yielded more than 2 fold of increase of the number of the gems at low 37 nM dose.
Minus NADPH Parent remaining 1st [1],Minus NADPH Parent remaining 2nd [1],Minus NADPH Parent remaining mean [1],Plus NADPH Parent remaining 1st [1],Plus NADPH Parent remaining 2nd [1],Plus NADPH Parent remaining mean [1],SMILES,Curve Class (SMN2-luciferase reporter),Increased SMN2 activity (SMN2-luciferase reporter),SMN protein level versus dose (in words) (human SMN protein),also measured
–,–,–,–,–,–,"Cc1ccc(-c2cnc(N3CCC(C(N)=O)CC3)s2)cc1 [Example 119, 1-(5-P-Tolylthiazol-2-yl)Piperidine-4-Carboxamide]",1.1,609.4%,up-regulation of SMN protein at concentrations ranging between 37 nM and 333 nM,–
68%,51%,59%,55%,43%,49%,"NC(=O)C1CCN(c2nc(-c3ccc(Br)cc3)cs2)CC1 [Example 23, 1-(4-(4-Bromophenyl)Thiazol-2-yl)Piperidine-4-Carboxamide]",1.1,267.7%,–,–
–,–,–,–,–,–,"CC(=O)CC(c1ccccc1)c1c(O)c2ccccc2oc1=O (stereo not drawn) [Warfarin, reference compound]",–,–,–,"Papp A→B at 2 h, 10 μM (in vitro): 45.8 ×10⁻⁶ cm/s; Papp B→A at 2 h, 10 μM (in vitro): 11.7 ×10⁻⁶ cm/s"
90%,101%,95%,76%,85%,81%,"O=C(O)C1CCN(c2nc(-c3ccc(Br)cc3)cs2)CC1 [Example 69, 1-(4-(4-Bromophenyl)Thiazol-2-yl)Piperidine-4-Carboxylic Acid]",1.1,554.58%,–,–
–,–,–,–,–,–,"O=C(O)C1CCN(c2ncc(-c3ccc4c(c3)OCCCO4)s2)CC1 [Example 148, 1-(5-(3,4-Dihydro-2H-Benzo[B][1,4]Dioxepin-7-yl)Thiazol-2-yl)Piperidine-4-Carboxylic Acid]",1.1,325.6%,dose-dependent trend between 37 nM to 1 μM concentration and a decrease of protein level at 3 μM,increase of the gem numbers ([2]; 37 nM to 1000 nM): 80%; number of gems versus dose (in words) [2]: slightly decreased at 3000 nM
69%,66%,67%,0%,0%,0%,"CN(C)c1cccc(-c2csc(N3CCC(C(N)=O)CC3)n2)c1 [Example 63, 1-(4-(3-(Dimethylamino)Phenyl)Thiazol-2-yl)Piperidine-4-Carboxamide]",1.1,504%,–,–
–,–,–,–,–,–,"CSc1ccc(-c2cnc(N3CCC(C(N)=O)CC3)s2)cc1 [Example 134, 1-(5-(4-(Methylthio)Phenyl)Thiazol-2-yl)Piperidine-4-Carboxamide]",1.1,576.1%,decreased with the increasing of the drug concentration,"increase of SMN protein level (human SMN protein; 37 nanomolar): 2-3 fold; increase of the number of the gems ([2]; 37 nM): more than 2 fold; number of gems versus dose (in words) [2]: With the concentration increased, the numbers of gems was reduced"
–,–,–,–,–,–,"NC(=O)C1CCN(c2ncc(-c3ccc4c(c3)OCCCO4)s2)CC1 [Example 124, 1-(5-(3,4-Dihydro-2H-Benzo[B][1,4] Dioxepin-7-yl)Thiazol-2-yl)Piperidine-4-Carboxamide]",1.1,370.5%,–,number of gems versus dose (in words) [2]: didn't show any activity
16%,15%,16%,1%,0%,1%,"NC(=O)C1CCN(c2nc(-c3ccc4c(c3)OCCO4)cs2)CC1 [Example 48, 1-(4-(2,3-Dihydrobenzo[B][1,4]Dioxin-6-yl)Thiazol-2-yl)Piperidine-4-Carboxamide]",1.1,459%,–,–
–,–,–,–,–,–,"CNC(=C[N+](=O)[O-])NCCSCc1ccc(CN(C)C)o1 [Ranitidine, ranitidine, reference compound]",–,–,–,"Papp A→B at 2 h, 10 μM (in vitro): 0.42 ×10⁻⁶ cm/s"
–,–,–,–,–,–,"O=C(Nc1ccccc1)C1CCN(c2ncc(-c3ccc4c(c3)OCCCO4)s2)CC1 [Example 151, 1-(5-(3,4-Dihydro-2H-Benzo[B][1,4]Dioxepin-7-yl)Thiazol-2-yl)-N-Phenylpiperidine-4-Carboxamide]",1.1,353%,up-regulation of SMN protein at concentrations ranging between 37 nM and 333 nM,–
–,–,–,–,–,–,"COc1ccc(-c2csc(N3CCC(C(N)=O)CC3)n2)cc1OC [Example 83, 1-(4-(3,4-Dimethoxyphenyl)Thiazol-2-yl)Piperidine-4-Carboxamide]",2.4,58.51%,–,–
–,–,–,–,–,–,"CC(C)Oc1cccc(-c2cnc(N3CCC(C(N)=O)CC3)s2)c1 [Example 123, 1-(5-(3-Isopropoxyphenyl)Thiazol-2-yl)Piperidine-4-Carboxamide]",1.1,709.6%,up-regulation of SMN protein at concentrations ranging between 37 nM and 333 nM,–
